We go through 17 molecules from ChEMBL document CHEMBL1141252, “Antitrypanosomal activity of triterpenoids and sterols from the leaves of Strychnos spinosa and related compounds” (J Nat Prod, 2007).

The source made the active and inactive calls. The calls are words filed in the database; no cut-off is given here.

In experiment [1] the test system is Trypanosoma brucei brucei. As to the kind of experiment: Antitrypanosomal activity against Trypanosoma brucei brucei bloodstream trypomastigotes by alamar blue assay. The experiment is classed as functional, organism-based. On the technique in general: The colour change of resazurin is a common sign of viable cells or microbes.
For experiment [2], the system named is J774. Briefly: Cytotoxicity against mouse J774 cells by alamar blue assay. The experiment is classed as cell-based.
A short description of experiment [3]: Selectivity index, ratio of IC50 for mouse J774 cells to IC50 for Trypanosoma brucei brucei bloodstream trypomastigotes. The experiment is classed as functional.
The nature of experiment [4]: Cytotoxicity against mouse leukemic cells. In kind it is functional, cell-based. Particulars: Leukemic tumor cell line.
A short description of experiment [5]: Cytotoxicity against human lung cancer cells. In kind it is functional, cell-based. Particulars: Cancer cell lines.
Experiment [6] is described as follows: Cytotoxicity against human colon cancer cells. In kind it is functional, cell-based. Conditions: Cancer cell lines.
Experiment [7] is described as follows: Cytotoxicity against human leukemia cells. Particulars: Leukemia cell. The experiment is classed as functional, cell-based.
In experiment [8] the test system is Trypanosoma cruzi. As to the kind of experiment: Antitrypanosomal activity against South American Trypanosoma cruzi bloodstream trypomastigotes at 21 uM. In kind it is functional.
Experiment [9] has as its system Trypanosoma cruzi. Briefly: Antitrypanosomal activity against South American Trypanosoma cruzi bloodstream trypomastigotes at 80.4 uM. In kind it is functional.
Experiment [10] relates to Trypanosoma brucei rhodesiense. As to the kind of experiment: Antitrypanosomal activity against Trypanosoma brucei rhodesiense bloodstream trypomastigotes. In kind it is functional, organism-based.

By IC50 is commonly meant the concentration that gives 50% inhibition. A low value points to higher potency. Regarding `C=CC(CC[C@@H](C)[C@H]1CC[C@H]2[C@@H]3CC=C4C[C@@H](O)CC[C@]4(C)[C@H]3CC[C@]12C)(OO)C(C)C` (some centres undefined), the concentration for half-maximal inhibition (IC50) in experiment [1] turned out to be 3.2 µM; in experiment [2] it was 16.4 µM; in [4] it was 0.7 µM; in [5], 0.7 µM; in experiment [6], 0.7 µM; in [7] it was 0.7 µM. In addition, the “Ratio IC50” value in [3] is listed as 5.2.

Consider `C[C@H]1[C@H](C)CC[C@]2(C)CC[C@]3(C)C(=CC[C@@H]4[C@@]5(C)CC[C@H](O)C(C)(C)[C@@H]5CC[C@]43C)[C@H]12`, for which the concentration for half-maximal inhibition (IC50) in experiment [1] worked out at 114 µM; in experiment [2], 128 µM. For the same molecule, in [3], the “Ratio IC50” value stood at 1.1.

Consider `CC[C@H](CC[C@@H](C)[C@H]1CC[C@H]2[C@@H]3CC=C4C[C@@H](O)CC[C@]4(C)[C@H]3CC[C@]12C)C(C)C` [BETA-SITOSTEROL], for which the half-maximal inhibitory concentration (IC50) in experiment [1] and in experiment [2] was > 241 µM each time.

In the case of `C=C(C)[C@@H]1CC[C@]2(C(=O)O)CC[C@]3(C)[C@H](CC[C@@H]4[C@@]5(C)CC[C@H](O)C(C)(C)[C@@H]5CC[C@]43C)[C@@H]12` [BETULINIC ACID], the figures for the half-maximal inhibitory concentration (IC50) in experiment [1] and in experiment [2] were 32.6 µM and 44 µM, respectively. The “Ratio IC50” value in experiment [3] is 1.3.

Consider `C=C(C)[C@@H]1CC[C@]2(CO)CC[C@]3(C)[C@H](CC[C@@H]4[C@@]5(C)CC[C@H](O)C(C)(C)[C@@H]5CC[C@]43C)[C@@H]12` [BETULIN], for which the concentration for half-maximal inhibition (IC50) in [1] was 8.9 µM; in experiment [2], 67.1 µM. Besides, the “Ratio IC50” value in experiment [3] was 7.4.

As for `C=C(C)[C@@H](CC)CC[C@@H](C)[C@H]1CC[C@H]2[C@@H]3CC=C4C[C@@H](O)CC[C@]4(C)[C@H]3CC[C@]12C` [CLEROSTEROL], the half-maximal inhibitory concentration (IC50) in experiment [1] is 130 µM; in experiment [2], > 242 µM. Also, the “Ratio IC50” value in [3] was >1.9.

`COc1cc2c(c(OC)c1OC)-c1ccc(OC)c(=O)cc1[C@@H](NC(C)=O)CC2` [COLCHICINE] displayed a half-maximal inhibitory concentration (IC50) in experiment [2] of 0.21 µM.

In the case of `CC1(C)CC[C@]2(CO)CC[C@]3(C)C(=CC[C@@H]4[C@@]5(C)CC[C@H](O)C(C)(C)[C@@H]5CC[C@]43C)[C@@H]2C1` [ERYTHRODIOL], the IC50 in experiment [1] turned out to be 12 µM; in experiment [2], 50.3 µM. Further, the “Ratio IC50” value in [3] is reported as 4.2.

Consider `C=C(C)[C@@H]1CC[C@]2(C)CC[C@]3(C)[C@H](CC[C@@H]4[C@@]5(C)CC[C@H](O)C(C)(C)[C@@H]5CC[C@]43C)[C@@H]12` [LUPEOL], for which the concentration for half-maximal inhibition (IC50) is 45.3 µM in [1] and > 234 µM in experiment [2]. Also, the “Ratio IC50” value in experiment [3] is on record as >5.2.

With `CC1(C)CC[C@]2(C(=O)O)CC[C@]3(C)C(=CC[C@@H]4[C@@]5(C)CC[C@H](O)C(C)(C)[C@@H]5CC[C@]43C)[C@@H]2C1` [OLEANOLIC_ACID], the 50% inhibitory concentration (IC50) was 6.4 µM in experiment [1] and 130 µM in experiment [2]. Further, the Activity in [8] and in [9] was 50% throughout. For the same molecule, the “Ratio IC50” value in experiment [3] amounted to 20.6.

As to `C=CC(O)(CC[C@@H](C)[C@H]1CC[C@H]2[C@@H]3CC=C4C[C@@H](O)CC[C@]4(C)[C@H]3CC[C@]12C)C(C)C` (some centres undefined) [SARINGOSTEROL], the IC50 is 7.8 µM in experiment [1] and > 233 µM in experiment [2]. For the same molecule, in experiment [3], the “Ratio IC50” value was >30.3.

In the case of `CC[C@H](CC[C@@H](C)[C@H]1CC[C@H]2[C@@H]3CC[C@H]4C[C@@H](O)CC[C@]4(C)[C@H]3CC[C@]12C)C(C)C` [STIGMASTANOL], the IC50 in [1] and in experiment [2] was > 240 µM each time.

`CC[C@H](/C=C/[C@@H](C)[C@H]1CC[C@H]2[C@@H]3CC=C4C[C@@H](O)CC[C@]4(C)[C@H]3CC[C@]12C)C(C)C` [STIGMASTEROL]: the IC50 is 135 µM in experiment [1] and > 242 µM in experiment [2]. Further, the “Ratio IC50” value in [3] is recorded as >1.8.

As for `Cc1ccc(C(=O)Nc2ccc(S(=O)(=O)O)c3cc(S(=O)(=O)O)cc(S(=O)(=O)O)c23)cc1NC(=O)c1cccc(NC(=O)Nc2cccc(C(=O)Nc3cc(C(=O)Nc4ccc(S(=O)(=O)O)c5cc(S(=O)(=O)O)cc(S(=O)(=O)O)c45)ccc3C)c2)c1` [SURAMIN], in [1], the concentration for half-maximal inhibition (IC50) stood at 0.041 µM.

For `C[C@H]1[C@H](C)CC[C@]2(C(=O)O)CC[C@]3(C)C(=CC[C@@H]4[C@@]5(C)CC[C@H](O)C(C)(C)[C@@H]5CC[C@]43C)[C@H]12` [URSOLIC ACID], the IC50 in experiment [1] was determined as 2.2 µM; in experiment [2] it was 13.1 µM. For the same molecule, the Activity in experiment [8] and in experiment [9] was 50% throughout. The “Ratio IC50” value in [3] is recorded as 6.

Turning to `C[C@H]1[C@H](C)CC[C@]2(CO)CC[C@]3(C)C(=CC[C@@H]4[C@@]5(C)CC[C@H](O)C(C)(C)[C@@H]5CC[C@]43C)[C@H]12` [UVAOL], the half-maximal inhibitory concentration (IC50) in experiment [1] is 27.8 µM; in experiment [2] it was 156 µM. Besides, the “Ratio IC50” value in experiment [3] amounted to 5.6.

In the case of `CC1(C)CC[C@]2(C)CC[C@]3(C)C(=CC[C@@H]4[C@@]5(C)CC[C@H](O)C(C)(C)[C@@H]5CC[C@]43C)[C@@H]2C1` [beta-AMYRIN], the IC50 in experiment [1] is 127 µM; in experiment [2], > 234 µM. Also, in experiment [10], the outcome was inactive. Further, the “Ratio IC50” value in experiment [3] is on record as >1.8.
